Molecules are shown by their SMILES.

T1 sequence (P35462 whole entry): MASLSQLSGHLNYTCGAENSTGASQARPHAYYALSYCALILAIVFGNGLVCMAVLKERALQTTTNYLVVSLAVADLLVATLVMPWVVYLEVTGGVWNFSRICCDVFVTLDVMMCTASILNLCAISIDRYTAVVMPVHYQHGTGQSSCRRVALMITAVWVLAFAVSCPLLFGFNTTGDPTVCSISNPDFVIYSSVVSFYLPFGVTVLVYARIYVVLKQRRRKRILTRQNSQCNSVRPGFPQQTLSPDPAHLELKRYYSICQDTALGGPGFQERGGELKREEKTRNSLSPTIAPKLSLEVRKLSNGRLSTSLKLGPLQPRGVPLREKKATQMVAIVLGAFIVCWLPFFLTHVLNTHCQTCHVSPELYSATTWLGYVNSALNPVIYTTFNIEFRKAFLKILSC

The first experiment concerns the target T1, Cloned Human Dopamine D3 Receptors (Homo sapiens, UniProt P35462).
T1 construct: expressed in transfected cells; membrane homogenate
The experiment is described as follows: [N-Methyl-3H]Spiroperidol binding to cloned human dopamine D3 receptors. Conditions: D3 Ki (nM). The source says: [N-Methyl-^3H]Spiroperidol Binding to Cloned Human Dopamine D3 Receptors
This assay measures the in vitro activity of compounds on cloned human dopamine (D3) receptors and predicts the direct dopamine-blocking properties of putative neuropsychiatric agents at human dopamine D3 receptors.
The D3 gene was isolated from a human striatal cDNA library (Stratagene). The gene was sequenced and sub-cloned into the expression vector RC/RSV (Invitrogen). CHO (Chinese Hamster Ovary) cells were stably transfected with 10 µg of the D3/RSV plasmid using the DOTAP method from Boehringer Mannheim and 72 clones that were G418 resistant were isolated. Using mRNA and binding displacement data a single high expressing clone was identified. This clone was then grown in large batches for the purpose of developing a 96 well format assay.
• 1. One plate (10 cm) with approximately 2-3 million D3 cells per plate is incubated with 1 ml of Trypsin-EDTA at room temperature for -2 min or until cells have lifted off plates. Four ml of Ham's F12 + 10% Fetal Bovine Serum + 1% Penicillin/Streptomycin + G418 (400 µg/ml) medium are added to resuspend cells and 1 ml of this is added to each large plate (15 cm) containing 19 ml of the same medium as mentioned above. • 2. The 5 large plates are incubated at 37°C + 5% CO2 for - 3 days or until the cells are confluent. • 3. After these plates are confluent, they are split into 10 large plates. Medium is aspirated off, 2 ml of Trypsin-EDTA are added to each plate and plates are incubated at RT for 2 min or until cells have lifted off the plate. Eight ml of the F12 medium (same medium as #1 above) are added to each plate (10 ml total) to resuspend the cells and 5 ml are transferred to the 2 new plates containing 15 ml of the F12 media. • 4. The 10 large plates are incubated at 37°C + 5% CO2 for ∼ 2 days or until the cells are confluent. • 5. The 10 large plates are split into 60 large plates (using Trypsin-EDTA as #3 except 4 ml of F12 medium are added to resuspend cells and 1 ml is aliquoted to 6 new plates containing 19 ml of F12 medium each). • 6. Plates are incubated at 37°C + 5% CO2 for - 3 days or until cell are confluent. • 7. The 60 large plates are then split into 60 roller bottles (100-150 million cells/bottle). Medium is aspirated off , 2 ml of Trypsin-EDTA are added to each plate and incubated at RT for -2 minutes or until cells have lifted off plates. Eight ml of F12 medium are added to each plate to resuspend cells and the entire 10 ml are added to 1 roller bottle containing 90 ml of the F12 medium. • 8. The 60 roller bottles are immediately placed on their sides and transferred to the roller bottle incubator. They are incubated at 37°C + 5% CO2 for ~ 3-5 days. Cells are spun at 30-40% motor speed in the Forma incubator. • 9. Medium is poured off and cells are washed 2X in PBS. • 10. Cells are then scraped off in 20 ml of PBS and the bottles are rinsed again with 5 ml of PBS to remove any remaining cells. Cells are stored on ice before membrane prepration. • 11. The yield for 60 D3 roller bottles has varied from - 260-500 mg. Note: All tissue culture reagents are from Gibco-BRL.
The cells are harvested into 250 ml centrifuge tubes with 100 volumes of cold phosphate buffered saline (PBS) and spun down (1200xG for 10 min at 4°C). The medium is removed and 100 ml PBS are added to each centrifuge tube, cells are resuspened and spun down again. The PBS is removed and the final pellet is homogenized in an appropriate volume of 10% DMSO with a polytron on ice at a medium setting.
A 200 µl sample membrane homogenate is added to 200 µl of 1% SDS, vortexed and allowed to stand for 5 min. Aliquots (25, 50 and 100 µl) of this mixture are assayed in duplicate following the standard Bio-Rad DC protein assay protocol (kit catalog number 500-0112) and using reagent S. Absorbance readings are made at 750 nm (note: the most accurate protein OD readings are between 0.1-0.5 units). […]
The molecule `CN1CCCC1CCNC(=O)[C@H]1C[C@@H]1CN1CCC(c2noc3ccsc23)CC1` (single isomer, unassigned) [compound 832514] showed a Ki of 115 nM.

Regarding `O=C(NC1CCN(CCc2cccc(Cl)c2)CC1)C1CC1CN1CCC(c2noc3ccsc23)CC1` (stereo not shown) [832573FH], the Ki worked out at 4.52 nM.

On to `O=C(NCCCc1nc2ccccc2[nH]1)[C@@H]1C[C@H]1CN1CCC(c2noc3ccsc23)CC1` [832574FH], for which the Ki was determined as 57.3 nM.

As for `Cn1nc(C2CCN(C[C@@H]3C[C@H]3C(=O)NCCCN3CCCCC3)CC2)c2cc(C(F)(F)F)ccc21` [833585ES], the Ki was 5.86 nM.

`CN1C2CCC1CC(NC(=O)C1CC1CN1CCC(c3nn(C)c4c(C(F)(F)F)cccc34)CC1)C2` (stereo not shown) [A002328941] registered a Ki of 23.9 nM.

The experiment is the same for the next values; noted with them: Table 2; unit inferred; read-out: d3Ki.
In the case of `CC1CCC(NC(=O)C2CC2CN2CCN(c3ccc(C(F)(F)F)cc3)CC2)CC1` (stereo not shown) [817039A], the Ki came out at 35 nM.

For `CCC1CCC(NC(=O)C2CC2CN2CCN(c3ccc(C(F)(F)F)cc3)CC2)CC1` (stereo not shown) [817043A], the Ki stood at 18.6 nM.

Turning to `CC[C@H]1CC[C@H](NC(=O)[C@@H]2C[C@H]2CN2CCN(c3ccc(Cl)c(Cl)c3)CC2)CC1` [817090A], the Ki stood at 5.04 nM.

For `CC[C@H]1CC[C@H](NC(=O)[C@@H]2C[C@H]2CN2CCN(c3cc(C)ccc3C)CC2)CC1` [817102A], the Ki came out at 7.57 nM.

For the molecule `Cc1ccccc1N1CCN(C[C@@H]2C[C@H]2C(=O)N[C@H]2CC[C@H](C)CC2)CC1` [817478A], the Ki is 1.99 nM.

In the case of `CCC1CCC(NC(=O)C2CC2CN2CCN(c3ncc(C(F)(F)F)cc3Cl)CC2)CC1` (stereo not shown) [817480A], the Ki was determined as 5.33 nM.

Turning to `C[C@H]1CC[C@H](NC(=O)[C@@H]2C[C@H]2CN2CCN(c3csc4cc(C(F)(F)F)ccc34)CC2)CC1` [817569A], the Ki was found to be 5.38 nM.

On to `CCC1CCC(NC(=O)C2CC2CN2CCN(c3cc(C)ccc3C)CC2)CC1` (stereo not shown) [817570A], for which the Ki was found to be 5.04 nM.

For the molecule `CCC1CCC(NC(=O)C2CC2CN2CCN(c3ccc(C)cc3C)CC2)CC1` (stereo not shown) [817571A], the Ki was 11.5 nM.

For `C[C@H]1CC[C@H](NC(=O)[C@H]2C[C@@H]2CN2CCN(c3csc4cc(C(F)(F)F)ccc34)CC2)CC1` [(+)-816589], the Ki was found to be 1070 nM.

As for `C[C@H]1CC[C@H](NC(=O)[C@@H]2C[C@H]2CN2CCN(c3csc4cc(C(F)(F)F)ccc34)CC2)CC1` [(-)-817569], the Ki stood at 2.62 nM.

Consider `O=C(CCCCN1CCN(c2csc3cc(F)ccc23)CC1)Nc1ccc(F)cc1` [compound 813384], for which the Ki is 74 nM.

For the molecule `CCCN(C(=O)CCCCN1CCN(c2csc3cc(F)ccc23)CC1)c1ccc(F)cc1` [compound 814648], the Ki was 39.6 nM.

`O=C(CCCCN1CCN(c2csc3cc(F)ccc23)CC1)N(Cc1ccccc1)c1ccc(F)cc1` [compound 814649]: the Ki stood at 38.9 nM.

With `C[C@H]1CC[C@H](NC(=O)[C@@H]2C[C@H]2CN2CCN(c3csc4cc(C(F)(F)F)ccc34)CC2)CC1` [compound 815916], the Ki stood at 5 nM.

Take `CCOC(=O)[C@H]1CC[C@H](NC(=O)[C@@H]2C[C@H]2CN2CCN(c3csc4cc(C(F)(F)F)ccc34)CC2)CC1` [compound 815917]: the Ki turned out to be 18 nM.

Turning to `CC[C@H]1CC[C@H](NC(=O)[C@@H]2C[C@H]2CN2CCN(c3csc4cc(C(F)(F)F)ccc34)CC2)CC1` [compound 815918], the Ki stood at 15 nM.

Still in this experiment, the particulars now being: d3Ki, Table 2; unit inferred.
For `C[C@H]1CC[C@H](NC(=O)[C@@H]2C[C@H]2CN2CCN(c3noc4ccsc34)CC2)CC1` [817892A], the Ki came out at 3.02 nM.

Staying with this experiment, now noted: read-out: D3 Ki.
Consider `CN1CCCC1CCNC(=O)[C@@H]1C[C@H]1CN1CCC(c2noc3ccsc23)CC1` (mixture of isomers) [compound 831936], for which the Ki was 34.7 nM.

Turning to `CC(C)(C)OC(=O)N1CCCC(CNC(=O)[C@@H]2C[C@H]2CN2CCC(c3noc4ccsc34)CC2)C1` (mixture of isomers) [compound 833374], the Ki was 30.6 nM.

`O=C(NCC1CCCNC1)[C@@H]1C[C@H]1CN1CCC(c2noc3ccsc23)CC1` (mixture of isomers) [compound 833385]: the Ki worked out at 3.31 nM.

As for `C[C@H]1CC[C@H](NC(=O)[C@@H]2C[C@H]2CN2CCC(c3cc4ccccc4s3)CC2)CC1` (relative stereo) [compound 831148, 2R-(4-Benzo[b]thiophen-2-yl-piperidin-1-ylmethyl)-1R-cyclopranecarboxylic acid (trans-4-methyl-cyclohexyl)-amide], the Ki amounted to 0.454 nM.

Regarding `COCCN1CCN(C(=O)[C@@H]2C[C@H]2CN2CCN(c3nn(C)c4ccc(OC)cc34)CC2)CC1` [832748FH], the Ki is 79.1 nM.

As for `O=C(NCCCN1CCCCC1)[C@@H]1C[C@H]1CN1CCN(c2nn(-c3ccc(C(F)(F)F)cc3)c3ccsc23)CC1` [A002201942], the Ki is 30.2 nM.

For `Cn1nc(N2CCN(C[C@@H]3C[C@H]3C(=O)NCCCN3CCOCC3)CC2)c2sccc21` [A002202402], the Ki turned out to be 47.3 nM.

On to `O=C(NCCCN1CCCCC1)[C@@H]1C[C@H]1CN1CCC(c2nn(CC(F)(F)F)c3ccsc23)CC1` [A002328969], for which the Ki worked out at 137 nM.

For the molecule `O=C([C@@H]1C[C@H]1CN1CCC(c2nn(CC(F)(F)F)c3ccsc23)CC1)N1CCC(Cn2ccnc2)CC1` [A002328970], the Ki turned out to be 36.2 nM.

Regarding `Cn1nc(C2CCN(C[C@@H]3C[C@H]3C(=O)NCCCN3CCCCC3)CC2)c2cccc(C(F)(F)F)c21` [A002329092], the Ki was 321 nM.

As for `Cn1nc(C2CCN(C[C@@H]3C[C@H]3C(=O)NCCCn3ccnc3)CC2)c2cccc(C(F)(F)F)c21` [A002329093], the Ki was determined as 411 nM.

In the case of `Cn1nc(N2CCN(C[C@@H]3C[C@H]3C(=O)NCCCN3CCSCC3)CC2)c2sccc21` [A002350370], the Ki was 81.2 nM.

On to `Cn1nc(C2CCN(C[C@@H]3C[C@H]3C(=O)N3CCC(Cn4ccnc4)CC3)CC2)c2sccc21` [A002436292], for which the Ki was 129 nM.

As for `O=C(NC1CCN(Cc2ccc(F)c(F)c2)CC1)[C@@H]1C[C@H]1CN1CCN(c2nn(-c3ccc(OC(F)(F)F)cc3)c3ccsc23)CC1` [A002437083], the Ki was 11 nM.

Regarding `O=C(NCCCn1ccnc1)[C@@H]1C[C@H]1CN1CCN(c2nc3cccc4c3n2CCC4)CC1` [A002437350], the Ki worked out at 16.2 nM.

As for `CN1CCN(CCCNC(=O)[C@@H]2C[C@H]2CN2CCN(c3nc4cccc5c4n3CCC5)CC2)CC1` [A002439100], the Ki is 552 nM.

As for `CC(C)(C)OC(=O)N1CCC(CNC(=O)[C@@H]2C[C@H]2CN2CCC(c3noc4c(C(F)(F)F)cccc34)CC2)CC1` [A002439261], the Ki worked out at 55.3 nM.

For the molecule `CN1CCN(CCCNC(=O)[C@@H]2C[C@H]2CN2CCC(c3nn(CC(F)(F)F)c4ccsc34)CC2)CC1` [A002439265], the Ki came out at 88 nM.

Still in this experiment, the particulars now being: read-out: d3Ki.
For `O=C(N[C@H]1CC[C@H](C(=O)O)CC1)[C@@H]1C[C@H]1CN1CCN(c2csc3cc(C(F)(F)F)ccc23)CC1` [816078A], the Ki was 89.7 nM.

`O=C(NCc1nc2ccccc2[nH]1)[C@@H]1CCC[C@H]1N1CCN(c2csc3cc(F)ccc23)CC1` [825826G]: the Ki is 32.5 nM.

In the case of `O=C(NCC1CC1)[C@@H]1CCC[C@H]1N1CCN(c2csc3cc(F)ccc23)CC1` [825829G], the Ki was found to be 40.1 nM.

Consider `O=C(NCc1cccnc1)[C@@H]1CCC[C@H]1N1CCN(c2csc3cc(F)ccc23)CC1` [825834G], for which the Ki was found to be 6.9 nM.

The experiment is the same for the next values; noted with them: the 17th table; read-out: D3 Ki.
Consider `C[C@H]1CC[C@H](N2CC(CN3CCN(c4noc5ccsc45)CC3)CC2=O)CC1` (stereo partly shown) [832831 DA], for which the Ki was 154 nM.

The values are drawn from EP1935887A1, “Heterocyclic substituted carbonyl derivatives and their use as dopamine D3 receptor ligands” (Aventis Pharmaceuticals Inc., priority 2001, dated 2002).
